Experimental data reported in patent US20060094676A1, “Compositions and methods for treating cancer using compositions comprising an inhibitor of endothelin receptor activity” (priority 2004, published 2006).
Non-standard residues stand in square brackets, D forms with d. Residues, ends and D or L forms follow the SMILES beside them.

Tested on: VEGF
Assay: Real-time RT-PCR of VEGF transcripts
Type: cell-based, human
Conditions: BQ123 in combination with BQ788; melanoma cell lines of the study; data not shown
Procedure: Equal amounts of RNA from cells that were treated with BQ788 for 3 days were subjected to real-time RT-PCR analysis for the detection VEGF (A), HIF-1α (B) and Gravin (C) transcripts. Differences in expression levels are shown as x fold change and are statistically significant (p<0.05) unless a column in marked as non significant (N.S.). Sections of two representative tumors derived from a human melanoma cell line grown in nude mice and injected either with vehicle (D) or BQ788 (E) were stained with anti CD-31 to highlight blood vessels (brown staining, Lahav et al, 1999).
RNA was prepared from the different cell lines in different culture conditions using SV total RNA isolation kit (Promega) according to the manufacturer's protocol. For each sample RNA concentration was determined using the total RNA nano procedure of an Agilent bioanalyzer. A stock of SK-MEL-28 RNA aliquots was prepared containing 10, 20, 50, 100, 200, 500 and 1000 ng/12 μl for use as a standard curve and kept in −80° C. For the experimental unknown samples, a stock of 100 ng/12 μl RNA aliquots from each cell line and condition was prepared and stored at −80° C. For each real-time experiment one series of standard curve and unknown experimental series of aliquots was put on ice for use. Complementary DNA was prepared by adding to each tube 0.5 μl of random hexamers (Promega) and 1 μl of 10 mM dNTP mix (Promega) and incubating at 65° C. for 5 min. 4 μl of 5× M-MLV buffer (Promega), 1 μl of the RNase inhibitor RNasin (Promega) and 1 μl of M-MLV RT RNase H (Promega) were then added and the solution was incubated at 42° C. for 50 min followed by 15 min at 70° C. For real time reactions 15 μl of each cDNA sample were transferred to 3 wells in a 386 well plate. To each well we added 10 μl of TaqMan universal PCR master mix (Applied Biosystems), 1 μl of primers+probe mix (Assays-on-Demand from Applied Biosystems: EDNRB Hs00240747, BCL-2A1 Hs00187845, PARP-3 Hs00154151, VEGF Hs00173626, HIF-1α Hs00153153 and Gravin Hs00374507) and 4 μl of nuclease free water (Promega). Wells containing water instead of cDNA served as negative controls. The samples were subjected to 40 cycles of 15 sec at 95° C. and 1 min at 60° C. A standard curve of Ct versus RNA quantity was established and accordingly the Ct in the unknown samples was correlated to quantity of transcript.
Real-time PCR analysis confirmed that VEGF expression levels increased 18-fold in BQ788 treated LN-met cells and 65-fold in SK-MEL-28 cells, compared to only 2-fold in primary melanoma, and no change in the Cut-met line (FIG. 5). The changes in VEGF expression levels can be explained, at least in part, by changes in the expression levels of its known regulator hypoxia inducible factor-1 oc (HIF-1α) (Maxwell, et al., Oxygen sensors and angiogenesis, Semin. Cell Dev. Biol., 13:29-37 (2002)). […]

CC(C)C[C@@H]1NC(=O)[C@@H](C(C)C)NC(=O)[C@@H]2CCCN2C(=O)[C@@H](CC(=O)O)NC(=O)[C@@H](Cc2c[nH]c3ccccc23)NC1=O [BQ123] (cyclo(L[dW][dD]P[dV]))
VEGF RNA levels compared to BQ788 alone: did not result in changes
